From patent US7008621B2, “Regulation of apoptosis in aquatic organisms by aquabirnavirus” (Academia Sinica, priority 1999, dated 2006)
Entries after “also recorded” stand apart in the source; their conditions may differ.

What was measured:
[1] = test system: CHSE-214 cells infected with IPNV E1-S; experiment: DNA internucleosomal cleavage induced by IPNV, agarose gel electrophoresis; type: cell-based, Chinook salmon; details: 16 h postinfection
Method: Lane 2: DNA isolated from uninfected CHSE-214 cells as a negative control. Lane 3: cells infected for 16 h with an MOI of 1 of E1-S, respectively, at 16 h postinfection. Lanes 6 and 7: CHSE-214 cells treated with aprotinin (400 μg/ml) in the absence and presence of infection by an MOI of 1 of E1-S, respectively, at 16 h postinfection. Lanes 8 and 9: CHSE-214 cells treated with leupeptin (400 μg/ml) in the absence and presence of infection by an MOI of 1 of E1-S, respectively, at 16 h postinfection. Lanes 10 and 11: CHSE-214 cells treated with genistein (100 μg/ml) in the absence and presence of infection by an MOI of 1 of E1-S, respectively; at 16 h postinfection. Lanes 12 and 13: CHSE-214 cells treated with tyrphostin (100 μg/ml) in the absence and presence of infection by an MOI of 1 of E1-S, respectively, at 16 h postinfection. Lanes 14 and 15: CHSE-214 cells treated with 2 mM EDTA in the absence and presence of infection by an MOI of 1 of E1-S, respectively, at 16 h postinfection. All samples were electrophoresed through 1.2% agarose gels and visualized by ethidium bromide staining. Lane 1 contains the molecular weight marekers used in the gel (1 kb DNA ladder from MBI for sizing linear fragments ranging in size from 500 bp to […]).
About 10^5 cells per ml were seeded on a 60-mm-diameter petri dish and allowed to grow for more than 20 h. The cell monolayers received virus at an MOI of 1.0 and were incubated for 8 h. Uninfected control cells were also incubated for 8 h. The two groups were used for DNA fragmentation studies. At the end of incubation, the cells were lysed with lysis buffer (10 mM Tris-HCl, 0.25% Triton X-100, 1 mM EDTA, pH 7.4). After treatment with phenol-chloroform-isoamyl alcohol (25:24:1), the DNA was precipitated in the presence of 0.3 M sodium acetate and cold absolute ethanol at −70° C. for 2 h and then resuspended in 10 mM Tris-HCl (pH 7.4)−1 mM EDTA. […]

IPNV E1-S = experiment: Blocking of viral replication / viral protein expression, Western blot with anti-E1-S virion antiserum; type: cell-based, infectious pancreatic necrosis virus; details: 16 h
Method: (§1) After adding protein synthesis inhibitor, serine proteinase inhibitors, tyrosine kinase inhibitors and a cation chelator, CHSE-214-EGFP cells were infected with IPNV (MOI of 1) then incubated for 16 h at 18° C. Samples were electrophoresed on a 12% SDS-polyacrylamide gel and electroblotted to a nitrocellulose membrane. Antigen-specific signals were detected with a rabbit anti-EI-S virion antiserum (A) or with a rabbit anti-human Mcl-1 antiserum (Pharmingen) (B) and with a mouse monoclonal IgG antibody directed against mouse actin (Chemicon) (C). (A) Lane 1, normal CHSE-214 cell lysate; lane 2, IPNV infected cell lysate at 16 h postinfection; lanes 3–8, 30 μg of cell lysate, to which was added cycloheximide (100 μg/ml), aprotinin (400 μg/ml), leupeptin (400 μg/ml), genistein (100 μg/ml), tyrphostin (100 μg/ml) and EDTA (2 mM), followed by IPNV infection and incubated cells for 16 h, respectively. (B,C) The nitrocellulose membrane from (A) was stripped and reprobed with Mcl-1 or an actin antibody, respectively.
(§2) About 10^5 cells/ml were seeded on a 60-mm. petri dish for growth for more than 20 h. Monolayers were rinsed twice with phosphate-buffered saline (PBS). Control cells or cells that received virus at a MOI of 1 were incubated for 0, 2, 4, 6, 8, 10 and 24 h. At the end of each incubation time the culture medium was aspirated. The cells were washed with PBS and then lysed in 0.3 nil lysis buffer [10 mM Tris base, 20% glycerol, 10 mM sodium dodecyl sulfate (SDS), 2% β-mercaptoethanol (P-ME), pH 6.8].
(§3) Proteins were separated by SDS-polyacrylamide gel electrophoresis (Laemmli, 1970), electroblotted, and subjected to immunodetection as described by Kain et al. (1994). Blots were incubated with a 1:1500 dilution of anti-human Mcl-1 polyclonal antibodies (Pharmingen) or a 1:7500 dilution of a peroxidase-labeled goat anti-rabbit conjugate (Amershan). Chemi-luminescent detection was performed according to the instructions provided with the Western Exposure Chemiluminescent Dectection System (Amershan). Chemiluminescent signals were imaged by exposure to Kodak XAR-5 film (Eastman Kodak, Rochester, N.Y., USA). Primary (Mcl-1) and secondary antibodies (peroxidase-labeled goat anti-rabbit conjugate) were stripped from blots by incubation in stripping buffer containing 62.5 mM Tris-HCI (pH 6.8), 3.0% (w/v) SDS and 50 mM 1,4-dithiothreitol for 30 min at 55° C. with gentle shaking. The blots were then washed four times for 10 min each time in PBS containing 0.1% (v/v) Tween 20 and reprobed with mouse actin monoclonal antibody (1/1500, Chemicon) and a 1:7500 dilution of a peroxidase-labeled sheep anti-mouse conjugate (Amersham).
(§4) At the end of the incubation period, cells were harvested and the samples were analyzed by Western blot method.

[2] = test system: CHSE-214-EGFP cells infected with IPNV; experiment: EGFP release (membrane integrity) Western blot after drug pre-treatment and IPNV infection; type: cell-based, Chinook salmon; details: 16 h
Method: Protein synthesis inhibitors, serine proteinase inhibitors, tyrosine kinase inhibitors, and a cation chelator were added to CHSE-214-EGFP cells before infection with IPNV (MOI of 1). After infection, the cells were incubated for 16 h. Samples were electrophoresed on a 12% SDS-polyacrylamide gel and electroblotted to a nitrocellulose membrane. Antigen-specific signals were detected with either rabbit anti-GFP serum (A and C) or a mouse IgG monoclonal antibody directed against actin (B). The chemiluminescent signal was imaged on Kodak XAR-5 film by using a 5-min (A), a 1-min (B), or a 30-min (C) exposure. (A) Lanes: 1, 0.2 μg of recombinant wild-type GFP as a positive control; 2, normal CHSE-214-EGFP cell lysate; 3, 30 μg of cell lysate protein corresponding to IPNV infection; 4–9, 30 μg of cell lysate protein corresponding to pre-treatment with cycloheximide (CHX) (100 μg/ml), aprotinin (400 μg/ml), leupeptin (400 μg/ml), genistein (100 μg/ml), tyrphostin (100 μg/ml), and EDTA (2 mM) and then followed by virus infection for 16 h, respectively. (B) The nitrocellulose membrane from panel A was stripped and reprobed with an actin antibody. (C) Lanes: 1, 100 ng of wide-type GFP; 2, 30 μg of supernatant medium protein from normal CHSE-214 cells; 3, 30 μg of supernatant medium protein from IPNV-infected cells at 16 h p.i. 4–9, 30 μg of supernatant medium protein corresponding to treatment with cycloheximide (CHX) (100 μg/ml), aprotinin (400 μg/ml), leupeptin (400 μg/ml), genistein (100 μg/ml), tyrphostin (100 μg/ml), and EDTA (2 mM) and then followed by virus infection for 16 h, respectively.
About 10^5 cells per ml were seeded on a 60-mm-diameter petri dish and allowed to grow for more than 20 h. The cell monolayers were rinsed twice with phosphate-buffered saline (PBS), after which they were infected at an MOI of 1 and incubated for 0, 2, 4, 6, 8, 10, 12, and 24 h post infection (p.i.). Uninfected control cells were also incubated for the same periods of time. At the end of each incubation time, the culture medium was aspirated. The cells were washed with PBS and then lysed in 0.3 ml of lysis buffer (10 mM Tris base, 20% glycerol, 10 mM sodium dodecyl sulfate [SDS], 2% β-mercaptoethanol, pH 6.8).
Proteins were separated by SDS-polyacrylamide gel electrophoresis, electroblotted, and subjected to immunodetection as described by Kain et al. (1994), Bio Techniques, 17:982–987. Blots were incubated with a 1:7,500 dilution of an immunoglobulin fraction (Clontech) and a 1:1,500 dilution of a peroxidase-labeled goat anti-rabbit conjugate (Amersham). Chemilumine-scence detection was performed in accordance with the instructions provided with the Western Exposure Chemiluminescent Detection System (Amersham). Chemiluminescent signals were imaged by exposure of Kodak XAR-5 film (Eastman Kodak, Rochester, N.Y.). Stripping and reprobing of the Western blot and removal of the primary and secondary antibodies from blot were achieved by incubation in stripping buffer containing 62.5 mM Tris-HCl (pH 6.8), 3.0% (wt/vol) SDS, and 50 mM 1,4-dithiothreitol for 30 min at 55° C. with gentle shaking. The blot was washed three times in PBS containing 0.1% (vol/vol) Tween 20 for 10 min each time and reprobed with antibodies beginning at the membrane blocking step.
At the end of the incubation period, cells were harvested and samples were analyzed by Western blotting.

Mcl-1 protein = experiment: Prevention of down-regulation of Mcl-1 protein expression by IPNV, Western blot; type: cell-based, Chinook salmon; details: 16 h
Method: as §1, §2, §3, §4

[3] = 400 μg/ml added before IPNV infection (MOI 1)
[4] = 400 μg/ml before IPNV infection

C[C@@H]1C[C@@H]([C@H](O)CC2CC(=O)NC(=O)C2)C(=O)[C@@H](C)C1 [CHX, cycloheximide]
induction of DNA internucleosomal cleavage by IPNV ([1]; 10 μg/ml before IPNV infection (MOI 1)): blocked the induction of DNA internucleosomal cleavage
viral replication / viral protein expression (IPNV E1-S; 10 μg/ml added to CHSE-214 cells before IPNV infection): blocked viral protein expression
viral replication / viral protein expression (IPNV E1-S; 10 μg/ml added to CHSE-214 cells before IPNV infection, listed as cyclohexamide): viral replication was prevented
prevention of EGFP release ([2]; 10 μg/ml added before IPNV infection (MOI 1)): completely prevented EGFP release
prevention of down-regulation of Mcl-1 protein expression (Mcl-1 protein; 10 μg/ml before IPNV infection): helped to maintain Mcl-1 expression level
prevention of down-regulation of Mcl-1 protein expression (Mcl-1 protein; 10 μg/ml before IPNV infection, listed as cyclohexamide): partially prevented down-regulation of Mcl-1 protein expression

O=C(O)CN(CCN(CC(=O)O)CC(=O)O)CC(=O)O [EDTA]
induction of DNA internucleosomal cleavage by IPNV ([1]; 2 mM before IPNV infection (MOI 1)): minor internucleosomal cleavage; also recorded: blocked the induction of DNA internucleosomal cleavage
viral replication / viral protein expression (IPNV E1-S; 2 mM added to CHSE-214 cells before IPNV infection): viral replication was prevented; also recorded: blocked viral protein expression
prevention of EGFP release ([2]; 2 mM added before IPNV infection (MOI 1)): completely prevented EGFP release
prevention of down-regulation of Mcl-1 protein expression (Mcl-1 protein; 2 mM before IPNV infection): partially prevented down-regulation of Mcl-1 protein expression; also recorded: helped to maintain Mcl-1 expression level

O=c1c(-c2ccc(O)cc2)coc2cc(O)cc(O)c12 [genistein]
induction of DNA internucleosomal cleavage by IPNV ([1]; 100 μg/ml before IPNV infection (MOI 1)): blocked the induction of DNA internucleosomal cleavage
viral replication / viral protein expression (IPNV E1-S; 100 μg/ml added to CHSE-214 cells before IPNV infection): viral replication was prevented; also recorded: blocked viral protein expression
prevention of EGFP release ([2]; 100 μg/ml added before IPNV infection (MOI 1)): partially prevented EGFP release
prevention of down-regulation of Mcl-1 protein expression (Mcl-1 protein; 100 μg/ml before IPNV infection): partially prevented down-regulation of Mcl-1 protein expression; also recorded: helped to maintain Mcl-1 expression level

CC(=O)N[C@@H](CC(C)C)C(=O)N[C@@H](CC(C)C)C(=O)N[C@H](C=O)CCCNC(=N)N [leupeptin]
prevention of EGFP release [2, 3]: did not prevent EGFP release
prevention of down-regulation of Mcl-1 protein expression (Mcl-1 protein; [4]): could not

aprotinin
prevention of EGFP release [2, 3]: did not prevent EGFP release
prevention of down-regulation of Mcl-1 protein expression (Mcl-1 protein; [4]): could not
